The subject of experiment [1] is Human immunodeficiency virus 1. Put plainly: Antiviral activity against HIV1 infected in human CEM-SS cells assessed as inhibition of virus-induced cytopathic effect by XTT assay. In kind it is functional, organism-based. The settings on record: Human immunodeficiency virus 1, CEM-SS.
The test system of the next experiment is CEM-SS. Put plainly: Cytotoxicity against human CEM-SS cells. Format: cell-based.

≈ marks a conversion by molar mass, not a printed value.

On to `CCC(C)(C)[C@H](NC(=O)[C@H](NC(=O)[C@@H]1CCCN1C(=O)C(NC(=O)[C@@H](C)NC=O)C(O)c1ccc(Br)cc1)C(C)(C)C)C(=O)N[C@H](Cc1c[nH]c2ccccc12)C(=O)N[C@@H](CCCNC(=N)N)C(=O)N[C@H](CS(=O)(=O)O)C(=O)N[C@@H]1C(=O)N(C)[C@@H](CCC(N)=O)C(=O)N[C@H](C(C)C)C(=O)N2CCC[C@H]2C(=O)N[C@H](CC(=O)O)C(=O)O[C@@H]1C` (some centres not stated) [MICROSPINOSAMIDE], for which the half-maximal effective concentration (EC50) in experiment [1] came out at 0.2 µg/mL (≈ 0.116 µM). This compound also registered an IC50 in the experiment with CEM-SS of 3 µg/mL (≈ 1.74 µM).
